For one compound, Ki and IC50 results are on record in patent US20160022675A1, “PROCESSES FOR PREPARING TETRAHYDROISOQUINOLINES” (BRISTOL-MYERS SQUIBB COMPANY, priority 2013, published 2016).

Usually Ki stands for the dissociation constant of the complex between target and ligand, obtained from inhibition or displacement. The term IC50 denotes the point on the concentration scale where inhibition reaches its midpoint.

Assay [1] concerns the target T1, adrenergic α1A receptor (Homo sapiens, UniProt P35348).
T1 sequence (P35348 1-466): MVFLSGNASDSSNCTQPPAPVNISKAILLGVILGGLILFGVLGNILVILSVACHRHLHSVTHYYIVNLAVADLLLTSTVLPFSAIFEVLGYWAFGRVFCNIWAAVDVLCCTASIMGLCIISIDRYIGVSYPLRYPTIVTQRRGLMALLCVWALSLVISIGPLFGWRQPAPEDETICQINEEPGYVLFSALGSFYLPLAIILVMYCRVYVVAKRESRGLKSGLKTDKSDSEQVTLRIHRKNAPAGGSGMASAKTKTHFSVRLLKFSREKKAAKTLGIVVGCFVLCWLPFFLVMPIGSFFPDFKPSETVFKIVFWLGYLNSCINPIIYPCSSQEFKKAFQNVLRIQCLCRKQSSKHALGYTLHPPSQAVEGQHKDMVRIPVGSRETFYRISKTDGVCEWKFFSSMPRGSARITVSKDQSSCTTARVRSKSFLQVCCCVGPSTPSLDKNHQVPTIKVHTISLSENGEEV
Put plainly: Off-target activity at adrenergic α1A receptor. It is filed as binding. As to conditions: off-target site.

The target in assay [2] is T2, adrenergic α1B receptor (Homo sapiens, UniProt P35368).
T2 sequence (P35368 1-520): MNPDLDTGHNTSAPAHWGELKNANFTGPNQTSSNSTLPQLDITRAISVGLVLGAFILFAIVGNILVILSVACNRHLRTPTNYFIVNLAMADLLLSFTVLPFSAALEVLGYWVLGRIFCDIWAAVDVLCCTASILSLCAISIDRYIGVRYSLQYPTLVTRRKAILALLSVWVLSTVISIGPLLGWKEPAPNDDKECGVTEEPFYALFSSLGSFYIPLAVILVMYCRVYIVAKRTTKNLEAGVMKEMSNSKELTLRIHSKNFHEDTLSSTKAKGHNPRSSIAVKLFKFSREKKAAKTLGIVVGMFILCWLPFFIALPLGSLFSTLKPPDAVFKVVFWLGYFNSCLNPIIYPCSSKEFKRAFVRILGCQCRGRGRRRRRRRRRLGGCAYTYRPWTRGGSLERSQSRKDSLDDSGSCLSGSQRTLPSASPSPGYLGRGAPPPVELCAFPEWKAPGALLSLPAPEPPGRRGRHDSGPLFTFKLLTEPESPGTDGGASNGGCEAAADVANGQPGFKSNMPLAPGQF
Put plainly: Off-target activity at adrenergic α1B receptor. It is filed as binding. As to conditions: off-target site.

In assay [3] the target is SERT (Homo sapiens, UniProt P31645). Put plainly: Competition binding, membranes from HEK cells overexpressing SERT. Further details: expressed in transfected cells; host or cells: HEK cells (membranes). As to conditions: radioligand at Kd concentration; HEK cell membranes; read-out: SERT binding IC50. On the procedure:
(§1) Competition binding experiments were performed to determine the in vitro binding potencies (IC50 values) of Compound 1-(4S) for SERT, DAT, and NET. Membranes prepared from human embryonic kidney (HEK) cells overexpressing each transporter were employed. Radioligands were used at their respective affinity constant (Kd) concentrations for each transporter to enable direct comparisons of the IC50 values between assays.

The target in assay [4] is NET (Homo sapiens, UniProt P23975). Put plainly: Competition binding, membranes from HEK cells overexpressing NET. Further details: expressed in transfected cells; host or cells: HEK cells (membranes). As to conditions: radioligand at Kd concentration; HEK cell membranes. On the procedure: as §1
The target in assay [5] is DAT (Homo sapiens, UniProt Q01959). Put plainly: Competition binding, membranes from HEK cells overexpressing DAT. More on the design: expressed in transfected cells; host or cells: HEK cells (membranes). Conditions: radioligand at Kd concentration; HEK cell membranes. On the procedure: as §1
Assay [6] concerns the target T3, adrenergic α1D receptor (Homo sapiens, UniProt P25100).
T3 sequence (P25100 1-572): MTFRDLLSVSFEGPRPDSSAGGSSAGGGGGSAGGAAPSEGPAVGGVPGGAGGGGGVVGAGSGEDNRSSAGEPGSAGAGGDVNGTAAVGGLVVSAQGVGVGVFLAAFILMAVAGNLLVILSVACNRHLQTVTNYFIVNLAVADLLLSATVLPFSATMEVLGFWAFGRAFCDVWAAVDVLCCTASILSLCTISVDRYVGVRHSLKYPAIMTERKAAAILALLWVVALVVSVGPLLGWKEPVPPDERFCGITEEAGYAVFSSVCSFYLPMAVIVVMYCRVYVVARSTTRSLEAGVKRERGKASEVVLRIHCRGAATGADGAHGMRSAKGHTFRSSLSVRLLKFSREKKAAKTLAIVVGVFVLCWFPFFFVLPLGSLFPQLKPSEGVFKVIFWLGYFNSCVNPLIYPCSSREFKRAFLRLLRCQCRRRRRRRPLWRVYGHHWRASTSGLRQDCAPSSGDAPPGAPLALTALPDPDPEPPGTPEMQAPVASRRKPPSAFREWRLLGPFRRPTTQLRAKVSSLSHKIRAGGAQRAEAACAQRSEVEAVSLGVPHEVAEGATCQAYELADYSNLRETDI
Put plainly: Off-target activity at adrenergic α1D receptor. It is filed as binding. Conditions: off-target site.

Assay [7] concerns the target T4, 5-HT1A (Homo sapiens, UniProt P08908).
T4 sequence (P08908 1-422): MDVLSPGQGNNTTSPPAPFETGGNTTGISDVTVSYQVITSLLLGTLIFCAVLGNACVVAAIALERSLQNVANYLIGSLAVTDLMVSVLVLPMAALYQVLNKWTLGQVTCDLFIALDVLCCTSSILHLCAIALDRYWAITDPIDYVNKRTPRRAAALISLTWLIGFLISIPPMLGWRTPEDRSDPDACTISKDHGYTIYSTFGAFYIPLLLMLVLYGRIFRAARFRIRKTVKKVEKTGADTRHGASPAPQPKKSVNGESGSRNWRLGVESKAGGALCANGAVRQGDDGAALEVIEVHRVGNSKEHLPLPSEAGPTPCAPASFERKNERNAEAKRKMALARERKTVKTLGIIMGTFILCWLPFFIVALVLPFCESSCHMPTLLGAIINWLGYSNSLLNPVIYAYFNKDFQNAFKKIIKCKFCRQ
Put plainly: Off-target activity at 5-HT1A. Conditions: off-target site; read-out: 5-HT1A inhibition constant Ki. The assay is classed as binding.

Sequence of DAT (Q01959 whole entry): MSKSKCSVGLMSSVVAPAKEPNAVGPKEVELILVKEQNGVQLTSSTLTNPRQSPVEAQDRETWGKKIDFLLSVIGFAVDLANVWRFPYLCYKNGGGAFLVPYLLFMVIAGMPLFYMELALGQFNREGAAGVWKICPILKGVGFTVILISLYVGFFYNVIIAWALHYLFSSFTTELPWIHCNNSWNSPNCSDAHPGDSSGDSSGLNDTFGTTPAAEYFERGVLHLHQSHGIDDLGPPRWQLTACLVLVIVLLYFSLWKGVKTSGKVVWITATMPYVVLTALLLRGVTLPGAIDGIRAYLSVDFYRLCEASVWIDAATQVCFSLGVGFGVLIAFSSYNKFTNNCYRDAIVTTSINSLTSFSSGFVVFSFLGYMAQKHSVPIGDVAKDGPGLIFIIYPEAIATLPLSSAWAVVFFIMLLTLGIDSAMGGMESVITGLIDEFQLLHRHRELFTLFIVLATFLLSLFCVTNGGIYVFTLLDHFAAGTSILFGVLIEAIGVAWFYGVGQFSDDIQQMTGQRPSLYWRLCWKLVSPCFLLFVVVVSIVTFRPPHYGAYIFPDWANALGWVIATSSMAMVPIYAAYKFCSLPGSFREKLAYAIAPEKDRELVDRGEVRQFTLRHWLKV
Sequence of SERT (P31645 whole entry): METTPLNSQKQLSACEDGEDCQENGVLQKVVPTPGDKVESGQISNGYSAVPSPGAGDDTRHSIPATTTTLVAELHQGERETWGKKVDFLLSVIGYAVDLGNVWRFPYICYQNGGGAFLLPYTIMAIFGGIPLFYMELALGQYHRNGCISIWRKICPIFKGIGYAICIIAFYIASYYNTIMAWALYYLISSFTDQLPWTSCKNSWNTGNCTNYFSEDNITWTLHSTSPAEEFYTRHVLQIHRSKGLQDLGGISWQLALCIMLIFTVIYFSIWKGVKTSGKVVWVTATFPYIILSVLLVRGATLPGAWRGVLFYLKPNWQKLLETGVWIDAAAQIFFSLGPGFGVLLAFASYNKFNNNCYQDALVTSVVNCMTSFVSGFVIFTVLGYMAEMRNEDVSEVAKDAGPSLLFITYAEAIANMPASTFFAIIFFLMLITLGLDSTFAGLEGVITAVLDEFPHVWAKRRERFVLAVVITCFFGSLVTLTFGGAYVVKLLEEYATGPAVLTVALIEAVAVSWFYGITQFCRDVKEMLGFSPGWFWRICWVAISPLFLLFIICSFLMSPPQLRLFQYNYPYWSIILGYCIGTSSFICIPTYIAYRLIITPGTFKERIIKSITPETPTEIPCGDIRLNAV
Sequence of NET (P23975 whole entry): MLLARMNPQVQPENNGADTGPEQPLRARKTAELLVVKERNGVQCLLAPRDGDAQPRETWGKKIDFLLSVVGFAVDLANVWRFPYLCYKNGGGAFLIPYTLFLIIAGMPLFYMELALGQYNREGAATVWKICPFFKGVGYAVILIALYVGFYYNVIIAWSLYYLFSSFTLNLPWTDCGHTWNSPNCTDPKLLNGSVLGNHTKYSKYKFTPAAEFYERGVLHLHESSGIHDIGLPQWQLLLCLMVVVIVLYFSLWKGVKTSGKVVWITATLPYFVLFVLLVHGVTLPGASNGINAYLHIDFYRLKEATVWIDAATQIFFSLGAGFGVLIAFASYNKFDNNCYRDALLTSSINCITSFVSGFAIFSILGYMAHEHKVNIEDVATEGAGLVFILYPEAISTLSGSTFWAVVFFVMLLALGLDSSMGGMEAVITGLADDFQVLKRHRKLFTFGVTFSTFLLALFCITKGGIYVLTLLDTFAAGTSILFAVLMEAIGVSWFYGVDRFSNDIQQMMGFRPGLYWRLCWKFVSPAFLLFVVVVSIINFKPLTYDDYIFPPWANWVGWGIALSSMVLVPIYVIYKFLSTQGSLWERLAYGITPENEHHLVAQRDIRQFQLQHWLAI

`Nc1ccc(-c2ccc3c(c2)CNC[C@H]3c2ccc3ccccc3c2)nn1` [Compound 31]: the Ki amounted to 410 nM in assay [1], 260 nM in assay [2], 480 nM in assay [6] and 99 nM in assay [7]. The values for the IC50 in assay [3], in assay [4] and in assay [5] were 0.21 ± 0.04 nM, 26.7 ± 3 nM and 6.19 ± 1 nM, respectively.
